Each structure is given as a SMILES string.

A short description of this series: In vitro dissolution of theophylline from solutions/suspensions (U.S.P. paddle, simulated gastric fluid, 37° C.). In kind it is physicochemical. The note with it: Table II; 50 R.P.M.; no polymers present.

Experimental: Standard U.S.P. Teflon coated stainless steel paddles and round bottom glass beakers were employed. The desired stirrer speed was maintained by commercial feedback control circuitry (50 RPM is illustrated by way of example). The dissolution medium was 1000 ml of Simulated Gastric Fluid U.S.P. without enzyme in most cases, kept at 37° C. by a water bath with a heat/circulator unit.
Suspension was placed into the filled beaker near the surface by 0.27 cm inner radius glass tube attached by plastic tubing to a three ml disposable syringe. Two ml of suspension was pulled up into the tube, the exterior wiped clean, one ml was extruded into the dissolution medium beneath the surface, and the suspension separated from the glass tube by cutting with a razor blade. The technique produced uniform cylindrical matrices in most cases.
In all cases, the total amount of drug released into the dissolution medium was less than ten percent of that needed to saturate the medium, so that sink conditions were maintained.
A precise volume was withdrawn near the top of the dissolution medium for each sample. The volume ranged from 0.1 ml to 3.0 ml. […]
Standard curves were concentrated for theophylline in simulated gastric fluid USP. Samples were diluted to read within the linear concentration range and absorbance was read at 272 nm using a single beam spectrophotometer.

`Cn1c(=O)c2[nH]cnc2n(C)c1=O` [Theophylline Powder, theophylline]: the “T 50% (time for 50% theophylline to dissolve)” value is under 5 min.

The record behind these values is US4717713A, “Controlled release liquid pharmaceutical” (Research Corporation, priority 1983, dated 1988).
